From ChEMBL document CHEMBL4330061, “Antitumoral activity of quinoxaline derivatives: A systematic review” (Eur J Med Chem, 2019)

Key:
MCF7 = assay: Antiproliferative activity against human MCF7 cells after 48 hrs by MTT assay; type: functional, cell-based; conditions: MCF7, 48 h
A549 = assay: Antiproliferative activity against human A549 cells after 48 hrs by MTT assay; type: functional, cell-based; conditions: A549, 48 h

| IC50 (MCF7) [nM] | IC50 (A549) [nM] | Compound |
| --- | --- | --- |
| 1910 | 3040 | COc1ccc(C2C3CCc4ccc(OC)cc4C3=NN2c2nc3nc4ccccc4nc3s2)cc1 (centres undefined) |
| 2320 | 4280 | C#Cc1cccc(Nc2ncnc3cc(OCCOC)c(OCCOC)cc23)c1 [ERLOTINIB] |
